Assay results: US20250177396A1, “POLO-LIKE KINASE 4 (PLK4) INHIBITORS, PHARMACEUTICAL COMPOSITIONS, METHODS OF PREPARATION AND USES THEREOF” (Repare Therapeutics Inc., priority 2022, published 2025)

molecular target: T1, PLK4 (Homo sapiens, UniProt O00444); experiment: PLK4 NanoBRET target engagement assay; format: binding; settings: HEK293 T cells transfected with PLK4 NanoLuc fusion vector; K-5 tracer; 2 hrs incubation
T1 construct: expressed in transfected cells; host or cells: HEK293 T cells (ATCC CRL-3216)
T1 sequence (O00444 1-970): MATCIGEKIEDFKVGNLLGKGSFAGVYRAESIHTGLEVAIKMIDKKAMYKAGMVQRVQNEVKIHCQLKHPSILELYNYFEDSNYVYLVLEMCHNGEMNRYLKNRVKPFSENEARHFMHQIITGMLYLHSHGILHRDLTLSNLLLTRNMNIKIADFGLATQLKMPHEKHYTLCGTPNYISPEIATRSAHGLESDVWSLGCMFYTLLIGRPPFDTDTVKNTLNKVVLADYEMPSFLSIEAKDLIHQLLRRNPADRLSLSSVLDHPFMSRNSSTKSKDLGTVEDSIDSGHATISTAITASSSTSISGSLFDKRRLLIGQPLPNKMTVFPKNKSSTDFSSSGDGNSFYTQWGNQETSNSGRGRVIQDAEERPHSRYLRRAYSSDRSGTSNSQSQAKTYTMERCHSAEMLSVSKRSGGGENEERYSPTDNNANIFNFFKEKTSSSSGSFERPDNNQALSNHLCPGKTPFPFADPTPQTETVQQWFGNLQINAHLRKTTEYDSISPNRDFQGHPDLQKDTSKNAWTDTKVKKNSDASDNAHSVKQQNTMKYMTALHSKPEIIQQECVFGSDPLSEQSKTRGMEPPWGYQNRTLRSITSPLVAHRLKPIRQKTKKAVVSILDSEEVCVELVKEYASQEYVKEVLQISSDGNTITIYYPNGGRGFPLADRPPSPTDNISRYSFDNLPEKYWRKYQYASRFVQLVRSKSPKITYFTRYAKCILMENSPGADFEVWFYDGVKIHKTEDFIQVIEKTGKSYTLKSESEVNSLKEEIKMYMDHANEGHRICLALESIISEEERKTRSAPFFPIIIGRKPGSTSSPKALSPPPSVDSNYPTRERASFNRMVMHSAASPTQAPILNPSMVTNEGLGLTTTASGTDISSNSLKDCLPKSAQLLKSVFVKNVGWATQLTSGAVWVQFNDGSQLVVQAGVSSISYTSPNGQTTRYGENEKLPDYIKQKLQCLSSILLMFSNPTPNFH
Procedure, shortened: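 HEK293T cells transiently expressing PLK4-NanoLuc, plated at 17000 cells/well with K-5 tracer and compound, incubated 2 h at 37 °C/5% CO2. After substrate/inhibitor mix, 610/450 nm emission ratio ×1000 gave mBRET; IC50 from 4-parameter fit.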

Row | SMILES | IC50
1 | Cc1cc(Nc2nc(N(C)c3ccc(S(C)(=O)=O)cc3F)nc(-c3cnn(C)c3)c2OC2CC2)n[nH]1 [Compound 344, 5-cyclopropoxy-N^2-(2-fluoro-4-(methylsulfonyl)phenyl)-N^2-methyl-N^4-(5-methyl-1H-pyrazol-3-yl)-6-(1-methyl-1H-pyrazol-4-yl)pyrimidine-2,4-diamine] | 0.073 µM
2 | CC#Cc1cc(Nc2nc(N(C)c3c(F)cc(S(C)(=O)=O)cc3F)nc(-c3cnn(C)c3)c2C2CC2)n[nH]1 [Compound 345] | 0.033 µM
3 | Cc1cc(Nc2nc(N(C)c3c(F)cc(S(C)(=O)=O)cc3F)nc(N3CCC[C@@H]3C(N)=O)c2C2CC2)n[nH]1 [Compound 346] | 0.012 µM
4 | Cc1cc(Nc2nc(N(C)c3c(F)cc(S(=O)(=O)C4CC4)cc3F)nc(-c3cn(C)cn3)c2C2CC2)n[nH]1 [Compound 347] | 0.005 µM
5 | Cc1cc(Nc2nc(N(C)c3c(F)cc(-c4ccc(=O)n(C)c4)cc3F)nc(-c3cn(C)cn3)c2C2CC2)n[nH]1 [Compound 348] | 0.046 µM
6 | CC(=O)N1CCC(c2cc(F)c(N(C)c3nc(Nc4cc(C)[nH]n4)c(C4CC4)c(-c4cn(C)cn4)n3)c(F)c2)CC1 [Compound 349] | 0.046 µM
7 | Cc1cc(Nc2nc(N(C)c3c(F)cc(C4CCOCC4)cc3F)nc(-c3cn(C)cn3)c2C2CC2)n[nH]1 [Compound 350] | 0.031 µM
8 | Cc1cc(Nc2nc(N(C)c3c(F)cc(B(O)O)cc3F)nc(-c3cn(C)cn3)c2C2CC2)n[nH]1 [Compound 351] | 0.052 µM
9 | Cc1cc(Nc2nc(N(C)c3c(F)cc(S(C)(=O)=O)cc3F)nc(-c3cn[nH]c3C(C)C)c2C2CC2)n[nH]1 [Compound 352] | 0.003 µM
10 | Cc1cc(Nc2nc(N(C)c3c(F)cc(N4CCOC4=O)cc3F)nc(-c3cn(C)cn3)c2C2CC2)n[nH]1 [Compound 353] | 0.006 µM
11 | Cc1cc(Nc2nc(N(C)c3c(F)cc(C(N)=O)cc3F)nc(-c3cn(C)cn3)c2C2CC2)n[nH]1 [Compound 354] | 0.017 µM
12 | Cc1cc(Nc2nc(N(C)c3c(F)cc(C(=O)N(C)C)cc3F)nc(-c3cn(C)cn3)c2C2CC2)n[nH]1 [Compound 355] | 0.19 µM
13 | Cc1cc(Nc2nc(N(C)c3c(F)cc(C(=O)N4CCOCC4)cc3F)nc(-c3cn(C)cn3)c2C2CC2)n[nH]1 [Compound 356] | 0.26 µM
14 | Cc1cc(Nc2nc(N(C)c3c(F)cc(N4CCS(=O)(=O)CC4)cc3F)nc(-c3cn(C)cn3)c2C2CC2)n[nH]1 [Compound 357] | 0.3 µM

The next lines start with the values.

Row | IC50 | SMILES
15 | 0.027 µM | Cc1cc(Nc2nc(N(C)c3c(F)cc(C4(C(N)=O)CC4)cc3F)nc(-c3cn(C)cn3)c2C2CC2)n[nH]1 [Compound 358]
16 | 0.065 µM | Cc1cc(Nc2nc(N(C)c3c(F)cc(C(=O)N4CCC4)cc3F)nc(-c3cn(C)cn3)c2C2CC2)n[nH]1 [Compound 359]
17 | 0.01 µM | Cc1cc(Nc2nc(N(C)c3c(F)cc([N+](=O)[O-])cc3F)nc(-c3cn(C)cn3)c2C2CC2)n[nH]1 [Compound 360]
18 | > 5 µM | Cc1cc(Nc2nc(N(C)c3c(F)cc(CC(=O)N(C)C)cc3F)nc(-c3cn(C)cn3)c2C2CC2)n[nH]1 [Compound 361]
19 | 0.004 µM | Cc1cc(Nc2nc(N(C)c3c(F)cc(C4(C#N)CC4)cc3F)nc(-c3cn(C)cn3)c2C2CC2)n[nH]1 [Compound 362]
20 | > 5 µM | Cc1cc(Nc2nc(N(C)c3c(F)cc(CC(=O)N4CCC4)cc3F)nc(-c3cn(C)cn3)c2C2CC2)n[nH]1 [Compound 363]
21 | > 5 µM | Cc1cc(Nc2nc(N(C)c3c(F)cc(CC(=O)N4CCOCC4)cc3F)nc(-c3cn(C)cn3)c2C2CC2)n[nH]1 [Compound 364]
22 | 0.004 µM | Cc1cc(Nc2nc(N(C)c3c(F)cc(S(C)(=O)=O)cc3F)nc(-c3cn(C4CC(O)C4)nc3C)c2C2CC2)n[nH]1 (stereo not shown) [Compound 365]
